According to patent US12534496B2, “Polymorphic forms of Cyclo (-His-Pro) and methods of use to treat kidney disease” (NovMetaPharma Co., Ltd., priority 2018, dated 2026):
Entries after “also recorded” stand apart in the source; their conditions may differ.

Key:
Assay type in all cases: physicochemical
[1] = Solubility of CHP hydrate (Pattern 2) in EtOH/water/MtBE; conditions: organic solvent or mixture
[2] = Variable temperature dynamic vapour sorption (VT-DVS) at 40, 50, 60 °C; conditions: for Post-VT-DVS XRPD form: after cycles at 40, 50 and 60 °C
Experimental: Approximately, 10-20 mg of sample was placed into a mesh vapor sorption balance pan and loaded into a DVS Advantage dynamic vapor sorption balance by Surface Measurement Systems. The sample was subjected to a ramping profile from 40-90% relative humidity (RH) at 10% increments, maintaining the sample at each step until a stable weight had been achieved (dm/dt 0.004%, minimum step length 30 minutes, maximum step length 500 minutes) at 40° C. After completion of the sorption cycle, the sample was dried using the same procedure to 0% RH and then a second sorption cycle back to 40% RH. The weight change during the sorption/desorption cycles were plotted, allowing for the hygroscopic nature of the sample to be determined. The experiment was repeated at 50° C. and finally at 60° C. XRPD analysis was then carried out on any solid retained.

[3] = 1-week stability assessment (40 °C/75% RH, 80 °C, ambient light; XRPD, HPLC purity)
Experimental: XRPD analysis was carried out on a sample of 5 g of CHP Hydrate. The sample was weighed in a glass vial, and 6 mL of a 90:10 ethanol/water mixture was added to make a slurry. The mixture was then agitated for approximately 24 hours at ambient temperature and then analyzed by XRPD. […] XPRD analysis was carried out to assess any change in the form of the material.

[4] = Drug substance stability study, 40±2 °C/75±5% RH (appearance, assay, impurities, chiral, water content, XRPD); conditions: for XRPD: reference standard of Pattern 2
Experimental: Packaging: Sample at each individual time point was packaged into double Antistatic LDPE bags both secured with cable ties. The sample packed for the same storage condition were stored together within a fiber drum, and closed with metal lid. All packages were prepared in the same fashion and labeled.
Time zero will be the day samples are placed on station. Initial testing results were from the release testing as long as samples are put on station within 30 days of the release test date, otherwise, initial was repeated.
Study Requirements: Total 22.5 g sample (Total 21 g sample if initial test is not needed): • 1.5 g for initial test if needed; • 21 g sample will be divided into 14 parts, 1.5 g for each parts, sample for each part should be weighed into double Antistatic LDPE bags both secured with cable ties. The stability samples for each storage condition are stored together within a fiber drum, closed with metal lid, and then stored at 25±2° C./60+5% RH (9 bags) and 40±2° C./75±5% RH (5 bags), respectively. Sampling Time:
Samples stored not more than 6 months were pulled on schedule date or within 2 business days after the scheduled date. Samples stored more than 6 months were pulled within +2 business days of the scheduled date.
Stability samples stored for one month to one year, and greater than one year were analyzed and completed within 10 and 20 business days after the samples pulled out from stability chamber, respectively. If time zero testing was performed, it was analyzed within 10 business days after study initiation.

[5] = 1-week stability assessment (40 °C/75% RH, 80 °C, ambient light; XRPD, HPLC purity); remark: listed apart in the source

Compound O=C1N[C@@H](Cc2cnc[nH]2)C(=O)N2CCC[C@@H]12 [Pattern 2, Pyrrolo [1,2-a]pyrazine-1,4-dione, hexahydro-3-(1H-imidazol-5-ylmethyl)-, hydrate (1:1), (3S, 8aS)-] has a solubility ([1]; (EtOH/water = 9/1)/MtBE 3/0 (v/v), 5 °C) of 121 mg/mL, a solubility ([1]; (EtOH/water = 9/1)/MtBE 3/0 (v/v), 50 °C) of over 200 mg/mL and a solubility ([1]; (EtOH/water = 9/1)/MtBE 3/1 (v/v), 5 °C) of 59 mg/mL. For the same compound, the solubility ([1]; (EtOH/water = 9/1)/MtBE 3/1 (v/v), 50 °C) was over 200 mg/mL, the solubility ([1]; (EtOH/water = 9/1)/MtBE 3/3 (v/v), 5 °C) was 30 mg/mL and the solubility ([1]; (EtOH/water = 9/1)/MtBE 3/3 (v/v), 50 °C) was 101 mg/mL. It also gave a solubility ([1]; (EtOH/water = 9/1)/MtBE 3/6 (v/v), 5 °C) of 6 mg/mL, a solubility ([1]; (EtOH/water = 9/1)/MtBE 3/6 (v/v), 50 °C) of 24 mg/mL and a solubility ([1]; (EtOH/water = 9/1)/MtBE 3/9 (v/v), 5 °C) of 6 mg/mL. For the same compound, the solubility ([1]; (EtOH/water = 9/1)/MtBE 3/9 (v/v), 50 °C) was 17 mg/mL, the “VT-DVS water loss in equivalents” value ([2]; 40 °C, from 10 to 0% RH) was 0.8 equiv water and the VT-DVS weight loss ([2]; 40 °C, from 10 to 0% RH) was “approx. 5.8 wt %”. The VT-DVS weight loss ([2]; 40 °C, from 10 to 0% RH, listed as CHP Hydrate, Pattern 2) was 5.8 wt %, the VT-DVS weight loss ([2]; 40 °C, from 10 to 0% RH, listed as CHP pattern 2) was “approximately 5.8 wt %” and the “VT-DVS water loss in equivalents” value ([2]; 50 °C, from 20 to 0% RH) was 0.8 equiv water. The VT-DVS weight loss ([2]; 50 °C, from 20 to 0% RH) was “approximately 6.1 wt %”, the VT-DVS weight loss ([2]; 50 °C, from 20 to 0% RH, listed as CHP Hydrate, Pattern 2) was 6.1 wt % and the VT-DVS weight loss ([2]; 50 °C, from 20 to 0% RH, listed as CHP pattern 2) was “approx. 6.1 wt %”. The “VT-DVS water loss in equivalents” value ([2]; 60 °C, from 20 to 0% RH) was 1.0 equiv water, the VT-DVS weight loss ([2]; 60 °C, from 20 to 0% RH) was “approximately 7 wt %” and the VT-DVS weight loss ([2]; 60 °C, from 20 to 0% RH, listed as CHP Hydrate, Pattern 2) was 7 wt %. For the same compound, the VT-DVS weight loss ([2]; 60 °C, from 20 to 0% RH, listed as CHP pattern 2) was “approx. 7 wt %”, the “RH below which dehydration starts” value ([2]; VT-DVS at 40 °C) was “below 10 % RH” and the “RH below which dehydration starts” value ([2]; VT-DVS at 50 °C) was “below 20 % RH”. The “RH below which dehydration starts” value ([2]; VT-DVS at 60 °C) was “below 20 % RH”, the “Post-VT-DVS XRPD form” value [2] was “mixture of Patterns 1 and 2” and the “Post-VT-DVS XRPD form” value ([2]; listed as CHP pattern 2) was “mixture of pattern 1 and pattern 2; also recorded: mixture of pattern 1 and 2”. The “XRPD form after storage” value ([3]; 7 days at 40 °C/75% RH) was “No change in form”, the “XRPD form after storage” value ([3]; 7 days at 40 °C/75% RH, listed as pattern 2) was “remain as pattern 2” and the “XRPD form after storage” value ([3]; 7 days at 40 °C/75% RH, listed as pattern 2 CHP) was “remained as pattern 2”. For the same compound, the “XRPD form after storage” value ([3]; 7 days at 80 °C) was “convert to pattern 1”, the “XRPD form after storage” value ([3]; 7 days at 80 °C, listed as pattern 2) was “dehydration from pattern 2 to pattern 1” and the “XRPD form after storage” value ([3]; 7 days at 80 °C, listed as pattern 2 CHP) was “converted to pattern 1”. For the same compound, the “XRPD form after storage” value ([3]; 7 days in ambient light) was “No change in form”, the “XRPD form after storage” value ([3]; 7 days in ambient light, listed as pattern 2) was “remain as pattern 2” and the “XRPD form after storage” value ([3]; 7 days in ambient light, listed as pattern 2 CHP) was “remained as pattern 2”. The Appearance ([4]; 40 ± 2° C./75 ± 5% RH, 1M) was “Off-white”, the “Assay by HPLC” value ([4]; 40 ± 2° C./75 ± 5% RH, 1M) was 103.2% and the “Chiral, HPLC: chiral impurity (D, D) optical isomer” value (shortened to “Chiral … (D, D) optical isomer”) ([4]; 40 ± 2° C./75 ± 5% RH, 1M) was “(D, D):N, D”. For the same compound, the “Chiral, HPLC: chiral impurity (D, L) optical isomer” value (“Chiral … (D, L) optical isomer” below) ([4]; 40 ± 2° C./75 ± 5% RH, 1M) was “(D, L):N, D”, the “Chiral, HPLC: chiral impurity (L, D) optical isomer” value (from here on “Chiral … (L, D) optical isomer”) ([4]; 40 ± 2° C./75 ± 5% RH, 1M) was “(L, D):N, D” and the “Chiral, HPLC: chiral purity” value ([4]; 40 ± 2° C./75 ± 5% RH, 1M) was 100.0%. The “Impurities, HPLC: H-His-OH” value ([4]; 40 ± 2° C./75 ± 5% RH, 1M) was 0.08%, the “Impurities, HPLC: each other individual impurity” value ([4]; 40 ± 2° C./75 ± 5% RH, 1M) was “individual < 0.05%” and the “Water content (KF)” value ([4]; 40 ± 2° C./75 ± 5% RH, 1M) was 7.2%. The Appearance ([4]; 40 ± 2° C./75 ± 5% RH, 3M) was “Off-white”, the “Assay by HPLC” value ([4]; 40 ± 2° C./75 ± 5% RH, 3M) was 103.3% and the “Chiral … (D, D) optical isomer” value ([4]; 40 ± 2° C./75 ± 5% RH, 3M) was “(D, D):N, D”. For the same compound, the “Chiral … (D, L) optical isomer” value ([4]; 40 ± 2° C./75 ± 5% RH, 3M) was “(D, L):N, D”, the “Chiral … (L, D) optical isomer” value ([4]; 40 ± 2° C./75 ± 5% RH, 3M) was “(L, D):N, D” and the “Chiral, HPLC: chiral purity” value ([4]; 40 ± 2° C./75 ± 5% RH, 3M) was 100.0%. For the same compound, the “Impurities, HPLC: H-His-OH” value ([4]; 40 ± 2° C./75 ± 5% RH, 3M) was 0.07%, the “Impurities, HPLC: each other individual impurity” value ([4]; 40 ± 2° C./75 ± 5% RH, 3M) was “individual < 0.05%” and the “Water content (KF)” value ([4]; 40 ± 2° C./75 ± 5% RH, 3M) was 7.2%. The Appearance ([4]; 40 ± 2° C./75 ± 5% RH, 6M) was “Off-white”, the “Assay by HPLC” value ([4]; 40 ± 2° C./75 ± 5% RH, 6M) was 102.4% and the “Chiral … (D, D) optical isomer” value ([4]; 40 ± 2° C./75 ± 5% RH, 6M) was “(D, D):N, D”. For the same compound, the “Chiral … (D, L) optical isomer” value ([4]; 40 ± 2° C./75 ± 5% RH, 6M) was “(D, L):N, D”, the “Chiral … (L, D) optical isomer” value ([4]; 40 ± 2° C./75 ± 5% RH, 6M) was “(L, D):0.5%” and the “Chiral, HPLC: chiral purity” value ([4]; 40 ± 2° C./75 ± 5% RH, 6M) was 99.9%. For the same compound, the “Impurities, HPLC: C16081735-D-isomer” value ([4]; 40 ± 2° C./75 ± 5% RH, 6M) was “isomer: 0.05%”, the “Impurities, HPLC: H-His-OH” value ([4]; 40 ± 2° C./75 ± 5% RH, 6M) was 0.06% and the “Water content (KF)” value ([4]; 40 ± 2° C./75 ± 5% RH, 6M) was 7.2%. The XRPD ([4]; 40 ± 2° C./75 ± 5% RH, 6M) was “Conform to reference”, the Appearance ([4]; Initial (time zero)) was “Off-white” and the “Assay by HPLC” value ([4]; Initial (time zero)) was 103.4%. The “Chiral … (D, D) optical isomer” value ([4]; Initial (time zero)) was “(D, D):N, D”, the “Chiral … (D, L) optical isomer” value ([4]; Initial (time zero)) was “(D, L):N, D” and the “Chiral … (L, D) optical isomer” value ([4]; Initial (time zero)) was “(L, D):N, D”. The “Chiral, HPLC: chiral purity” value ([4]; Initial (time zero)) was 100.0%, the “Impurities, HPLC: H-His-OH” value ([4]; Initial (time zero)) was 0.07% and the “Impurities, HPLC: each other individual impurity” value ([4]; Initial (time zero)) was “individual < 0.03%”. The “Water content (KF)” value ([4]; Initial (time zero)) was 7.4%, the XRPD ([4]; Initial (time zero)) was “Conform to reference” and the “Purity after 1 week” value ([5]; HPLC, 40 °C/75% RH) was 99.5%. The “Purity after 1 week” value ([5]; HPLC, 80 °C) was 99.4%, the “Purity after 1 week” value ([5]; HPLC, Ambient) was 99.5% and the “Purity of starting material” value ([5]; HPLC, before storage) was 99.5%. For the same compound, the “Change in HPLC purity after 7 days” value ([5]; all conditions (40 °C/75% RH, 80 °C, ambient light)) was “no drop in purity; also recorded: No change in purity”.
